Where two headings read alike, the source gives them in different places. Where a SMILES comes first, the peptide text is derived from it.
Experiments:
[1] = tested on: S. aureus ATCC 29213; assay type: cell-based, Staphylococcus aureus
Method: (§1) Bacteria were grown overnight at 37° C. in Mueller-Hinton Broth (MHB; Sigma-Aldrich, St. Louis. MO, USA) in a shaking incubator and aliquoted into cryovials with a 50% glycerol solution in a 1:1 ratio. No additives were added to the MHB during the growth of bacterial isolates. Glycerol stocks were stored at −80° C.
(§2) The antimicrobial activity of the putative AMPs was determined by a broth microdilution assay as described by the Clinical and Laboratory Standards Institute, with the published adaptations for testing of cationic peptides. Escherichia coli 25922 and Staphylococcus aureus 29213 isolates were purchased from the American Type Culture Collection (ATCC; Manassas, VA, USA). A human clinical isolate of Salmonella enterica serovar Enteritidis was provided by the BC Centre for Disease Control. Bacteria from stocks stored at −80° C. were streaked onto nonselective Columbia blood agar with 5% sheep blood (Oxoid) and incubated overnight at 37° C. Next, 2-4 colonies were streaked onto a new agar plate to ensure uniform health of colonies used in the broth microdilution assay. Isolated colonies were suspended in MHB and the optical density was measured with a spectrophotometer to create an initial inoculum concentration of approximately 1×10^8 cfu/mL. The inoculum was diluted 1:250 to a final concentration of 2-8×10^5 cfu/mL, which was confirmed by performing a Total Viability Count (TVC). The TVC consisted of plating a 1:1000 dilution of the final inoculum on nonselective media and was also used to confirm the health and purity of the inoculum in each trial.
(§3) Lyophilized 80 μg peptide aliquots synthesized by GenScript (Piscataway, NJ, USA) were resuspended to 1.28 mg/mL with UltraPure water (Thermo Fisher Scientific, Waltham, MA, USA) and serially diluted in polypropylene 96-well microtiter plates (Greiner Bio-One #650261, Kremsmunster, Austria) from 128 down to 0.5 μg/mL. Two columns per plate were reserved for growth and sterility controls. Inoculum was added to the wells containing the peptide and the growth control. Plates were incubated for 20-24 h at 37° C. The minimum inhibitory concentration (MIC) was determined as the lowest peptide concentration where there was no visible bacterial growth.

[2] = tested on: E. coli ATCC 25922; assay type: cell-based, Escherichia coli
Method: as §1, §2, §3

[3] = tested on: Salmonella enterica serovar Enteritidis (human clinical isolate); assay type: cell-based
Method: as §1, §2, §3

[4] = serovar Enteritidis (human clinical isolate)
[5] = Table 14, third value of the cell, three independent experiments, highest concentration tested 128
[6] = Table 14, first value of the cell, three independent experiments, highest concentration tested 128
[7] = Table 14, second value of the cell, three independent experiments, highest concentration tested 128

CC[C@H](C)[C@H](NC(=O)[C@H](CO)NC(=O)[C@@H](NC(=O)[C@@H](NC(=O)[C@@H](N)C(C)C)[C@@H](C)O)[C@@H](C)CC)C(=O)N[C@@H](C)C(=O)N[C@@H](CCCNC(=N)N)C(=O)N[C@@H](CCCNC(=N)N)C(=O)N[C@H](C(=O)N[C@@H](CO)C(=O)N[C@@H](CO)C(=O)N[C@@H](Cc1c[nH]cn1)C(=O)N[C@@H](CCCCN)C(=O)N[C@@H](CCCNC(=N)N)C(=O)NCC(=O)O)C(C)C [BoAr5, VTISIARRVSSHKRG] (H-VTISIARRVSSHKRG-OH; N-terminus and C-terminus assumed)
>128/>128/>128 ug/mL: MIC (ug/mL) S. aureus ([1]; ATCC 29213) | MIC (ug/mL) E. coli ([2]; ATCC 25922) | MIC (ug/mL) S. Enteritidis [3, 4]

CC[C@H](C)[C@H](NC(=O)[C@H](Cc1ccccc1)NC(=O)[C@H](CCCCN)NC(=O)[C@@H](NC(=O)[C@H](CCCCN)NC(=O)[C@@H](N)CC(N)=O)[C@@H](C)CC)C(=O)N[C@@H](CC(N)=O)C(=O)N[C@@H](CCCCN)C(=O)N[C@@H](Cc1ccc(O)cc1)C(=O)N[C@H](C(=O)N[C@@H](CCCCN)C(=O)N[C@@H](CCCCN)C(=O)N[C@H](C(=O)N[C@@H](CCC(N)=O)C(=O)N[C@@H](CC(C)C)C(=O)N[C@@H](CCCCN)C(=O)N[C@@H](CCCCN)C(=O)N[C@H](C(=O)N[C@@H](CC(C)C)C(=O)N[C@H](C(=O)N[C@@H](CCCCN)C(=O)N[C@@H](CO)C(=O)O)C(C)C)[C@@H](C)CC)C(C)C)C(C)C [BoCo1] (H-NKIKFINKYVKKVQLKKILVKS-OH; N-terminus and C-terminus assumed)
>128/>128/>128 ug/mL: MIC (ug/mL) S. aureus ([1]; ATCC 29213) | MIC (ug/mL) E. coli ([2]; ATCC 25922) | MIC (ug/mL) S. Enteritidis [3, 4]

CC[C@H](C)[C@H](NC(=O)[C@H](Cc1c[nH]cn1)NC(=O)[C@H](Cc1c[nH]cn1)NC(=O)[C@H](Cc1c[nH]cn1)NC(=O)[C@@H](N)CCCCN)C(=O)N[C@@H](CCCCN)C(=O)N[C@@H](CC(C)C)C(=O)N[C@@H](CCCNC(=N)N)C(=O)N[C@@H](Cc1c[nH]cn1)C(=O)NCC(=O)N[C@@H](CCCNC(=N)N)C(=O)N[C@@H](Cc1c[nH]cn1)C(=O)N[C@@H](CCCNC(=N)N)C(=O)N[C@@H](CCCNC(=N)N)C(=O)N[C@@H](CO)C(=O)N[C@H](C(=O)N[C@@H](CC(C)C)C(=O)N[C@@H](CCCNC(=N)N)C(=O)N[C@H](C(=O)N[C@@H](CC(C)C)C(=O)N[C@H](C(=O)O)C(C)C)[C@@H](C)O)C(C)C [CaCa3] (H-KHHHIKLRHGRHRRSVLRTLV-OH; N-terminus and C-terminus assumed)
>128/>128/>128 ug/mL: MIC (ug/mL) S. aureus ([1]; ATCC 29213) | MIC (ug/mL) E. coli ([2]; ATCC 25922) | MIC (ug/mL) S. Enteritidis [3, 4]

CC[C@H](C)[C@H](NC(=O)CN)C(=O)N[C@@H](Cc1ccccc1)C(=O)N[C@@H](CO)C(=O)N[C@@H](CC(C)C)C(=O)N[C@H](C(=O)N[C@@H](CCCCN)C(=O)NCC(=O)N[C@@H](C)C(=O)N[C@@H](C)C(=O)N[C@@H](CCCCN)C(=O)O)[C@@H](C)CC [LeBo1, GIFSLIKGAAK] (H-GIFSLIKGAAK-OH; N-terminus and C-terminus assumed)
>128/>128/>128 ug/mL: MIC (ug/mL) S. aureus [1, 5] | MIC (ug/mL) E. coli [2, 6] | MIC (ug/mL) S. Enteritidis [3, 7]

CSCC[C@H](NC(=O)[C@@H](N)C(C)C)C(=O)N[C@@H](CC(C)C)C(=O)N1CCC[C@H]1C(=O)N[C@@H](CCCCN)C(=O)N[C@@H](Cc1ccccc1)C(=O)N[C@@H](CCCCN)C(=O)N[C@@H](CCCNC(=N)N)C(=O)O [MiDe1, VMLPKFKR] (H-VMLPKFKR-OH; N-terminus and C-terminus assumed)
>128/>128/>128 ug/mL: MIC (ug/mL) S. aureus ([1]; ATCC 29213) | MIC (ug/mL) E. coli ([2]; ATCC 25922) | MIC (ug/mL) S. Enteritidis [3, 4]

CC[C@H](C)[C@H](NC(=O)[C@H](CC(=O)O)NC(=O)[C@H](CO)NC(=O)[C@H](CC(C)C)NC(=O)[C@@H]1CCCN1C(=O)[C@@H](N)[C@@H](C)O)C(=O)N[C@@H](Cc1ccccc1)C(=O)N[C@@H](CCCNC(=N)N)C(=O)NCC(=O)N[C@@H](CCC(N)=O)C(=O)N[C@@H](CC(C)C)C(=O)N[C@@H](CCCNC(=N)N)C(=O)N[C@@H](CO)C(=O)N[C@@H](CCCNC(=N)N)C(=O)N[C@H](C(=O)N[C@@H](CO)C(=O)N[C@@H](CCCNC(=N)N)C(=O)O)C(C)C [NaVi1, TPLSDIFRGQLRSRVSR] (H-TPLSDIFRGQLRSRVSR-OH; N-terminus and C-terminus assumed)
>128/>128/>128 ug/mL: MIC (ug/mL) S. aureus ([1]; ATCC 29213) | MIC (ug/mL) E. coli ([2]; ATCC 25922) | MIC (ug/mL) S. Enteritidis [3, 4]

CC(C)C[C@H](NC(=O)CNC(=O)[C@H](CO)NC(=O)[C@H](CO)NC(=O)[C@H](CO)NC(=O)[C@H](CO)NC(=O)[C@H](CC(C)C)NC(=O)[C@@H]1CCCN1C(=O)[C@H](CO)NC(=O)[C@H](CC(C)C)NC(=O)[C@H](CO)NC(=O)[C@@H](N)CO)C(=O)NCC(=O)N[C@@H](CCCCN)C(=O)N[C@@H](CCCCN)C(=O)N[C@@H](CCCCN)C(=O)N[C@@H](CCCCN)C(=O)N[C@@H](CCCNC(=N)N)C(=O)N[C@@H](CCCCN)C(=O)N[C@@H](CO)C(=O)N[C@@H](CCCCN)C(=O)N[C@@H](CCCNC(=N)N)C(=O)N[C@@H](C)C(=O)N[C@@H](CO)C(=O)N[C@@H](CCCNC(=N)N)C(=O)O [NaVi2] (H-SSLSPLSSSSGLGKKKKRKSKRASR-OH; N-terminus and C-terminus assumed)
>128/>128/>128 ug/mL: MIC (ug/mL) S. aureus ([1]; ATCC 29213) | MIC (ug/mL) E. coli ([2]; ATCC 25922) | MIC (ug/mL) S. Enteritidis [3, 4]

CC[C@H](C)[C@H](NC(=O)[C@H](CS)NC(=O)[C@H](CCCNC(=N)N)NC(=O)[C@H](CS)NC(=O)[C@H](CO)NC(=O)[C@H](CCCNC(=N)N)NC(=O)[C@H](CO)NC(=O)[C@H](CO)NC(=O)[C@H](CO)NC(=O)CN)C(=O)N[C@@H](CCCNC(=N)N)C(=O)N[C@@H](CC(C)C)C(=O)N[C@@H](CO)C(=O)N[C@@H](CCCNC(=N)N)C(=O)N[C@@H](CC(C)C)C(=O)N[C@@H](CO)C(=O)N[C@@H](CO)C(=O)N[C@@H](CCCCN)C(=O)N[C@@H](CCCNC(=N)N)C(=O)N[C@H](C(=O)O)[C@@H](C)O [NaVi4] (H-GSSSRSCRCIRLSRLSSKRT-OH; N-terminus and C-terminus assumed)
>128/>128/>128 ug/mL: MIC (ug/mL) S. aureus ([1]; ATCC 29213) | MIC (ug/mL) E. coli ([2]; ATCC 25922) | MIC (ug/mL) S. Enteritidis [3, 4]

CC[C@H](C)[C@H](NC(=O)CNC(=O)[C@H](CO)NC(=O)[C@@H](NC(=O)[C@H](CC(C)C)NC(=O)CN)[C@@H](C)CC)C(=O)N[C@@H](CC(C)C)C(=O)NCC(=O)N[C@@H](C)C(=O)NCC(=O)N[C@@H](CCCCN)C(=O)N[C@@H](CCCCN)C(=O)O [OdMa8, GLISGILGAGKK] (H-GLISGILGAGKK-OH; N-terminus and C-terminus assumed)
>128/>128/>128 ug/mL: MIC (ug/mL) S. aureus [1, 5] | MIC (ug/mL) E. coli [2, 6] | MIC (ug/mL) S. Enteritidis [3, 7]

CC[C@H](C)[C@H](NC(=O)[C@H](Cc1c[nH]cn1)NC(=O)[C@H](Cc1c[nH]cn1)NC(=O)[C@H](Cc1ccc(O)cc1)NC(=O)[C@@H](N)CCCCN)C(=O)N[C@@H](CCCCN)C(=O)N[C@@H](CC(C)C)C(=O)N[C@@H](CCCNC(=N)N)C(=O)N[C@@H](Cc1c[nH]cn1)C(=O)NCC(=O)N[C@@H](CCCNC(=N)N)C(=O)N[C@@H](Cc1c[nH]cn1)C(=O)N[C@@H](CCCNC(=N)N)C(=O)N[C@@H](CCCNC(=N)N)C(=O)N[C@H](C(=O)N[C@H](C(=O)N[C@@H](Cc1c[nH]cn1)C(=O)O)[C@@H](C)CC)[C@@H](C)O [PaVa2, KYHHIKLRHGRHRRTIH] (H-KYHHIKLRHGRHRRTIH-OH; N-terminus and C-terminus assumed)
>128/>128/>128 ug/mL: MIC (ug/mL) S. aureus ([1]; ATCC 29213) | MIC (ug/mL) E. coli ([2]; ATCC 25922) | MIC (ug/mL) S. Enteritidis [3, 4]
